Source: patent US8481592B2, “Uses of sesquiterpene derivatives” (Kwang Dong Pharm Co., Ltd., priority 2008, dated 2013)
Where a name gives a salt, the structure may show the parent alone. Marks after values point to notes of the source that are not given here.

Experiments:
[1] = Physical characteristics of the compounds (solubility, stability); conditions: easily dissolved in organic solvent having lower polarity than ethanol, but not water
C. elegans = assay: Anti-obesity effect (fat content by Nile red staining) in C. elegans; format: in vivo, Caenorhabditis elegans; design: key to Fat content: A low fat content was indicated by +1; a high fat content was assigned with +4; conditions: for inhibitory effect on adipogenesis: low concentration of 1 μg/ml; for Fat content: Nile red staining
Protocol: Using a dissecting microscope (×50 magnification), C. elegans at the 4th stage (L4, the imaginal stage) was transferred to 3 ml of a cholesterol-supplemented S-medium (containing NaCl, K2HPO4, KH2PO4, cholesterol, citrate, trace metals, CaCl2 and MgSO4), and 100 μl of E. coli OP50 (OD600=0.2) liquid-cultured overnight before 1 day of experiment was added thereto. The Pterocarpus indicus fraction sample was added to the liquid media containing C. elegans, followed by rotary culture in a dark room at 16° C. and 100 rpm. The water-insoluble sample was dissolved in DMSO and added to the culture media. The final concentration of DMSO was adjusted below 1%. […] 24 hours after the sample was added to C. elegans, 30 μl of a Nile red dye at a concentration of 10 μg/ml was added (final concentration of Nile red was adjusted to 100 ng/ml) to the media, followed by continuous rotary culture for 2 days.
In order to arrest the locomotory movement of C. elegan, 20 μl of 0.3% NaN3 was dropped on a slide glass to which 100 μl of C. elegans cultured in the presence of Nile red for 2 days was added. Under a fluorescence microscope, adipocytes of C. elegans emitting red fluorescence in a dark room were micrographed and compared with the control group to thereby determine the amount of fat. A low fat content was indicated by +1, whereas a high fat content was assigned with +4. Adult (L4 stage) C. elegans immediately prior to egg-laying were used in this Example. Therefore, the eggs were hatched after sample treatment and most of adult C. elegans were killed at 3 day post-treatment. A fat content was examined in C. elegans which had newly hatched and grown.

[2] = Biochemical index of blood and liver tissue in mice fed high fat diet containing sesquiterpene compound; format: in vivo, mouse; conditions: for Liver Triglyceride / IRI (insulin resistance index) / Plasma Glucose / Plasma Insulin / Plasma Total cholesterol / Plasma Triglyceride: HFD with compound in diet, 8 weeks; for IRI (insulin resistance index) / Plasma Glucose / Plasma Insulin / Plasma Total cholesterol / Plasma Triglyceride: fasted
Protocol: The composition of diet is described in the following Table 5. […] After experimental animals were fasted for above 12 hrs, they were anesthetized with diethylether, and their blood, liver and visceral fat tissues (epididymal fat, perirenal fat, mesenteric fat and abdominal fat) were collected. And then, they were washed with 0.1 M phosphate-buffered saline (pH 7.4), and their weights were measured. […] Concentration of total Plasma cholesterol, triglyceride and glucose was measured twice according to commercially available measurement kit (Bio Clinical system), respectively. Insulin concentration was measured by ELISA using mouse insulin kit (Shibayaki, Japan). […] The homogenate was mixed with 5 ml of chloroform:methanol solution (2:1, v/v), and centrifuged at 1,000×g for 10 min to separate lower phase. […] Three ml of chloroform:methanol:0.05% CaCl2 solution (3:48:47, v/v/v) were added to the resulting lower phase, and thoroughly mixed for 1 min. The mixture was centrifuged at 1,000×g for 10 min. The final lower phase was completely dried on nitrogen gas, and the dried lipid was dissolved in 1 ml of methanol to use analysis of lipid component. Triglyceride concentration in lipid extracts from liver tissues was measured according to commercially available measurement kit (Bio Clinical system) equal to that used in analysis of plasma.

[3] = Body weight gain and total visceral fat weight in mice fed high fat diet containing sesquiterpene compound; format: in vivo, mouse; conditions: for Body weight gain / total visceral fat weight: HFD with 0.2% compound in diet, C57BL mice, 8 weeks; for total visceral fat weight: epididymal, perirenal, mesenteric and abdominal fat
Description: Obesity-inducible diet used in the present experiment was high fat diet (HFD: 40% fat calorie, 17 g Lard+3% maize oil/100 g diet) developed by the present inventors and the composition of diet containing sesquiterpene compounds was equal to that of HFD but each 8 sesquiterpene compounds with a concentration of 0.2% was included in diet [cedryl acetate-containing diet, (−)-α-cedrene-containing diet, (+)-β-cedrene-containing diet, cedrene epoxide-containing diet, methyl cedryl ether-containing diet, methyl cedryl ketone-containing diet, cedrenol-containing diet and (+)-cedrol-containing diet]. The composition of diet is described in the following Table 5.
6-old-week C57BL/63 male mice were adapted to laboratory environment during one week and divided into HFD control and 8 test groups according to randommized block design. […] Diet was supplied with water at 10-11 o'clock every morning, and intake amount of diet and body weight was measured every day and once of three days, respectively. The body weight was measure at 2 hrs after removing feed bin to block sudden change of body weight according to feed intake, and feed efficiency was calculated by dividing body weight gain by amount of total intake amount of diet during total experimental period which is from initial day supplying experimental diet to sacrificed day. After experimental animals were fasted for above 12 hrs, they were anesthetized with diethylether, and their blood, liver and visceral fat tissues (epididymal fat, perirenal fat, mesenteric fat and abdominal fat) were collected. And then, they were washed with 0.1 M phosphate-buffered saline (pH 7.4), and their weights were measured. Blood taken from abdominal aorta was centrifuged at 1,000×g for 15 min to separate plasma.

Structure (SMILES): C=C1[C@@H](O)C[C@@]23C[C@@H]1C(C)(C)C2CC[C@H]3C (single isomer, unassigned; (+)) [(+)-8(15)-cedrene-9-ol, (+)-8(15)-Cedren-9-ol]
- Solubility [1]: Fat soluble
- inhibitory effect on adipogenesis (C. elegans): notably inhibitory effect on adipogenesis
- Fat content (C. elegans; sample concentration 1 μg/ml): +2
- Fat content (C. elegans; sample concentration 10 μg/ml): +1
- Fat content (C. elegans; sample concentration 100 μg/ml): +2

Structure (SMILES): C=C1C2CCC3C2[C@@H](C(C)C)CC[C@@]13C (single isomer, unassigned; (+)) [(+)-sativene]
- Solubility [1]: Fat soluble
- inhibitory effect on adipogenesis (C. elegans): notably inhibitory effect on adipogenesis
- Fat content (C. elegans; sample concentration 1 μg/ml): +2
- Fat content (C. elegans; sample concentration 10 μg/ml): +2
- Fat content (C. elegans; sample concentration 100 μg/ml): +1

Structure (SMILES): CC1(C)C=C[C@]23CCC[C@](C)(CCC12)C3 (single isomer, unassigned; (-)) [(−)-clovene, (−)-Clovene]
- Solubility [1]: Fat soluble
- inhibitory effect on adipogenesis (C. elegans): notably inhibitory effect on adipogenesis
- Fat content (C. elegans; sample concentration 1 μg/ml): +2
- Fat content (C. elegans; sample concentration 10 μg/ml): +2
- Fat content (C. elegans; sample concentration 100 μg/ml): +2

Structure (SMILES): C[C@@H]1CC[C@H]2C(C)(C)[C@H]3C[C@@]12CC[C@@]3(C)O [(+)-cedrol]
- all fasting glucose, blood insulin concentration and insulin resistance index in comparison with control ([2]; 8-week): prone to be decreased in comparison with control, but statistical significance was not shown
- Liver Triglyceride [2]: 49.1 ± 4.10 µmol/g
- IRI (insulin resistance index) [2]: 1.45 ± 0.22 10^−3 pmol insulin × mmol glucose × L^−2
- Plasma Glucose [2]: 9.8 ± 0.99 mmol/L
- Plasma Insulin [2]: 0.86 ± 0.07 ng/mL
- Plasma Total cholesterol [2]: 2.98 ± 0.20 mmol/L
- Plasma Triglyceride [2]: 1.31 ± 0.10 mmol/L
- Body weight gain [3]: 10.9 ± 0.85 g/8 weeks
- total visceral fat weight [3]: 92.4 ± 5.31 mg/g body weight
- Visceral fat weight compared to control ([3]; diet fed during 8-week): higher than that in control
- Fat content (C. elegans; sample concentration 1 μg/ml): +4
- Fat content (C. elegans; sample concentration 10 μg/ml): +4
- Fat content (C. elegans; sample concentration 100 μg/ml): +3

Structure (SMILES): CC1=CC[C@]23C[C@H]1C(C)(C)C2CC[C@H]3C (stereo partly drawn) [(+)-α-funebrene]
- Solubility [1]: Fat soluble
- inhibitory effect on adipogenesis (C. elegans): notably inhibitory effect on adipogenesis
- Fat content (C. elegans; sample concentration 1 μg/ml): +3
- Fat content (C. elegans; sample concentration 10 μg/ml): +2
- Fat content (C. elegans; sample concentration 100 μg/ml): +2

Structure (SMILES): C=C1CC[C@@]23C[C@@H]1C(C)(C)C2CC[C@H]3C (stereo partly drawn) [(+)-β-cedrene]
- Liver Triglyceride [2]: 16.6 ± 1.28 µmol/g
- IRI (insulin resistance index) [2]: 0.78 ± 0.11* 10^−3 pmol insulin × mmol glucose × L^−2
- Plasma Glucose [2]: 6.80 ± 0.41 mmol/L
- Plasma Insulin [2]: 0.70 ± 0.08 ng/mL
- Plasma Total cholesterol [2]: 2.57 ± 0.19 mmol/L
- Plasma Triglyceride [2]: 1.32 ± 0.11 mmol/L
- triglyceride concentration of liver tissue reduced compared to HFD ([2]; 8-week): 63%
- Solubility [1]: Fat soluble
- Body weight gain [3]: 7.13 ± 0.89 g/8 weeks
- total visceral fat weight [3]: 48.0 ± 8.27 mg/g body weight
- inhibitory effect on adipogenesis (C. elegans): notably inhibitory effect on adipogenesis
- Fat content (C. elegans; sample concentration 1 μg/ml): +2
- Fat content (C. elegans; sample concentration 10 μg/ml): +3
- Fat content (C. elegans; sample concentration 100 μg/ml): +2

Structure (SMILES): C=C1CC[C@]23C[C@H]1C(C)(C)C2CC[C@H]3C (stereo partly drawn) [(+)-β-funebrene]
- Solubility [1]: Fat soluble
- inhibitory effect on adipogenesis (C. elegans): notably inhibitory effect on adipogenesis
- Fat content (C. elegans; sample concentration 1 μg/ml): +1
- Fat content (C. elegans; sample concentration 10 μg/ml): +1
- Fat content (C. elegans; sample concentration 100 μg/ml): +2

Structure (SMILES): C[C@@H]1CC[C@H]2C(C)(C)[C@H]3C[C@@]12CC[C@]3(C)O [(−)-epicedrol, (−)—epicedrol]
- inhibitory effect on adipogenesis (C. elegans): notably inhibitory effect on adipogenesis
- Fat content (C. elegans; sample concentration 1 μg/ml): +1
- Fat content (C. elegans; sample concentration 10 μg/ml): +1
- Fat content (C. elegans; sample concentration 100 μg/ml): +3

Structure (SMILES): CC1=CC[C@@]23C[C@@H]1C(C)(C)C2CC[C@H]3C (stereo partly drawn) [(−)-α-cedrene]
- Liver Triglyceride [2]: 16.1 ± 0.60 µmol/g
- IRI (insulin resistance index) [2]: 0.75 ± 0.13* 10^−3 pmol insulin × mmol glucose × L^−2
- Plasma Glucose [2]: 6.41 ± 0.57 mmol/L
- Plasma Insulin [2]: 0.67 ± 0.04 ng/mL
- Plasma Total cholesterol [2]: 2.11 ± 0.16 mmol/L
- Plasma Triglyceride [2]: 0.81 ± 0.15 mmol/L
- triglyceride concentration of liver tissue reduced compared to HFD ([2]; 8-week): 64%
- Plasma triglyceride concentration reduced compared to HFD ([2]; 8-week): 50%
- Solubility [1]: Fat soluble
- Body weight gain [3]: 6.73 ± 1.02 g/8 weeks
- total visceral fat weight [3]: 40.0 ± 4.31 mg/g body weight
- inhibitory effect on adipogenesis (C. elegans): notably inhibitory effect on adipogenesis
- Fat content (C. elegans; sample concentration 1 μg/ml): +2
- Fat content (C. elegans; sample concentration 10 μg/ml): +2
- Fat content (C. elegans; sample concentration 100 μg/ml): +2

Structure (SMILES): CC(=O)O[C@]1(C)CC[C@@]23C[C@@H]1C(C)(C)[C@@H]2CC[C@H]3C [Cedryl acetate, cedryl acetate]
- blood insulin concentration reduced compared to HFD ([2]; 8-week): 49%
- fasting glucose reduced compared to HFD ([2]; 8-week): 54%
- insulin resistance index reduced compared to HFD ([2]; 8-week): 73%
- Liver Triglyceride [2]: 23.8 ± 2.33 µmol/g
- IRI (insulin resistance index) [2]: 0.44 ± 0.06* 10^−3 pmol insulin × mmol glucose × L^−2
- Plasma Glucose [2]: 4.67 ± 0.40 mmol/L
- Plasma Insulin [2]: 0.49 ± 0.07 ng/mL
- Plasma Total cholesterol [2]: 2.53 ± 0.10 mmol/L
- Plasma Triglyceride [2]: 1.12 ± 0.06 mmol/L
- Plasma triglyceride concentration reduced compared to HFD ([2]; 8-week): 30%
- Solubility [1]: Fat soluble
- Body weight gain [3]: 8.54 ± 0.84 g/8 weeks
- total visceral fat weight [3]: 46.4 ± 3.12 mg/g body weight
- Fat content (C. elegans; sample concentration 1 μg/ml): +4
- Fat content (C. elegans; sample concentration 10 μg/ml): +3
- Fat content (C. elegans; sample concentration 100 μg/ml): +2

Structure (SMILES): C[C@@H]1CC[C@H]2C(C)(C)[C@H]3C[C@@]12CC[C@@]3(C)OC=O [cedryl formate, Cedryl formate]
- Solubility [1]: Fat soluble
- inhibitory effect on adipogenesis (C. elegans): notably inhibitory effect on adipogenesis
- Fat content (C. elegans; sample concentration 1 μg/ml): +3
- Fat content (C. elegans; sample concentration 10 μg/ml): +1
- Fat content (C. elegans; sample concentration 100 μg/ml): +1
